Measurements taken from patent publication US10240216B2 (priority 2013, dated 2019).

Key:
Magnaporthe oryzae = type: cell-based; details: at 25 μg/mL
[1] = system: a number of bacteria and fungi; details: concentration of 1 mg/ml; cited from earlier work
Bacillus brevis = type: cell-based
Mucor miehei = type: cell-based
Paealomyces variotii = type: cell-based
HeLaS3 cells = details: 50 μg/mL, 72 h
human neutrophils = details: cited from earlier work
a number of bacteria = details: concentration of 64 µg/mL; cited from earlier work

For `Cc1ccc2c(c1/C=C/C=C/C(=O)O)C(C)CC(C)C2O` (stereo not shown) [arohynapene A], the “inhibition of the spore germination of Magnaporthe oryzae” value (Magnaporthe oryzae) is given as 100% and the “antimicrobial activity in vitro against a number of bacteria and fungi” value (“antimicrobial activity in vitro” for short) [1] is given as “no antimicrobial activity”.

For `Cc1ccc2c(c1/C=C/C=C/C(=O)O)[C@H](C)C[C@H](C)C2` [tanzawaic acid A], the “activity in agar diffusion assay against Bacillus brevis” value (Bacillus brevis) was “slight activity”, the “activity in agar diffusion assay against Mucor miehei” value (Mucor miehei) was “slight activity” and the “activity in agar diffusion assay against Paealomyces variotii” value (Paealomyces variotii) was “slight activity”. For the same compound, the “cytotoxic effects against HeLaS3 cells” value (HeLaS3 cells) was “cytotoxic effects” and the “inhibition of superoxide anion production in human neutrophils” value (human neutrophils) was “inhibit superoxide anion production”.

In the case of hynapenes A, B and C [hynapene A], the “antimicrobial activity in vitro” value [1] is given as “show antimicrobial activity”.

For arohynapene D, the “antimicrobial activity in vitro” value [1] is listed as “no antimicrobial activity”.

For `CC1Cc2ccc(CO)c(/C=C/C=C/C(=O)O)c2C(C)C1` (stereo not shown) [arohynapene B], the “inhibition of the spore germination of Magnaporthe oryzae” value (Magnaporthe oryzae) is given as 100% and the “antimicrobial activity in vitro” value [1] is given as “no antimicrobial activity”.

For “Tanzawaic acids A, B, C and D [tanzawaic acid B]”, the “inhibition of superoxide anion production in human neutrophils” value (human neutrophils) is given as “inhibit superoxide anion production”.

For `C[C@@H]1C[C@@](C)(O)Cc2ccc(CO)c(/C=C/C=C/C(=O)O)c21` [tanzawaic acid G, Tanzawaic acids G and H], the “activity against a number of bacteria” value (a number of bacteria) is listed as “neither tanzawaic acids G nor H were found to be active”.
